Experimental data published in patent US9656955B2, “Pyrrolidine derivatives, pharmaceutical compositions containing them, and their use in therapy” (AbbVie Deutschland GmbH & Co. KG, priority 2013, dated 2017).

Biological target: human GlyT1c transporter (Homo sapiens (Human), UniProt P48067)
Assay: Radioligand binding assays using recombinant CHO cell membranes expressing human GlyT1
Settings: radioligand binding, human GlyT1c transporter-expressing CHO cell membranes

human GlyT1c transporter, sequence (P48067 whole entry): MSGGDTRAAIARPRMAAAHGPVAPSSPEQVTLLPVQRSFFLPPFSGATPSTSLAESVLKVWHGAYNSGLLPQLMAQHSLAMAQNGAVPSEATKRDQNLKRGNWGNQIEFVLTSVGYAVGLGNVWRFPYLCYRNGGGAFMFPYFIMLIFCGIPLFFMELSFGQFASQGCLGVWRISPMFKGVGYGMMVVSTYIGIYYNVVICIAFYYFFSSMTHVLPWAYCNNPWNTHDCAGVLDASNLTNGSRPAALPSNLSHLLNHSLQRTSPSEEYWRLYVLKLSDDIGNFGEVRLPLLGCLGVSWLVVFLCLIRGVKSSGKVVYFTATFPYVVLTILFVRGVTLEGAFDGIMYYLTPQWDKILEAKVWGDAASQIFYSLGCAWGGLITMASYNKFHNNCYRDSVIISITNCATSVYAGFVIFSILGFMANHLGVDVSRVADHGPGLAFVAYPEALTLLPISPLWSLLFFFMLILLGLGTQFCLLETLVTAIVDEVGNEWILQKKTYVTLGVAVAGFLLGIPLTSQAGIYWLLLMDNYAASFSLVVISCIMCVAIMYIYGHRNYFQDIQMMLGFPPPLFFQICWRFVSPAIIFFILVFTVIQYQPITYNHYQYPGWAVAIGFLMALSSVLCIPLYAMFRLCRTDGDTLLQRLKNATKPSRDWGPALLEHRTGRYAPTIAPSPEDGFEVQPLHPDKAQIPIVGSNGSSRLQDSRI

Compound | Ki
Cn1cnc(S(=O)(=O)N2CC(Nc3cccc(C(F)(F)F)c3)C(C3CCCO3)C2)c1 (centres unmarked) [Example 603, 1-[(1-methyl-1H-imidazol-4-yl)sulfonyl]-4-(tetrahydrofuran-2-yl)-N-[3-(trifluoromethyl)phenyl]pyrrolidin-3-amine] | ≤ 100 nM
Cn1cnc(S(=O)(=O)N2C[C@H](Nc3cccc(C(F)(F)F)c3)[C@@H](C3CCCO3)C2)c1 (stereo partly drawn) [Example 604, (3R,4S)-1-[(1-methyl-1H-imidazol-4-yl)sulfonyl]-4-(tetrahydrofuran-2-yl)-N-[3-(trifluoromethyl)phenyl]pyrrolidin-3-amine] | ≤ 100 nM
CCCOc1cc(N[C@H]2CN(S(=O)(=O)c3cn(C)cn3)C[C@@H]2c2ccccc2)ncn1 [Example 622, N-{(3R,4S)-1-[(1-methyl-1H-imidazol-4-yl)sulfonyl]-4-phenylpyrrolidin-3-yl}-6-propoxypyrimidin-4-amine] | ≤ 100 nM
CCCCOc1cc(N[C@H]2CN(S(=O)(=O)c3cn(C)cn3)C[C@@H]2c2ccccc2)ncn1 [Example 623, 6-butoxy-N-{(3R,4S)-1-[(1-methyl-1H-imidazol-4-yl)sulfonyl]-4-phenylpyrrolidin-3-yl}pyrimidin-4-amine] | ≤ 100 nM
CCCn1cc(C[C@@H]2CN(S(=O)(=O)c3cn(C)cn3)C[C@H]2c2ccccc2)nn1 [Example 659, 4-({(3S,4R)-1-[(1-methyl-1H-imidazol-4-yl)sulfonyl]-4-phenylpyrrolidin-3-yl}methyl)-1-propyl-1H-1,2,3-triazole] | ≤ 10000 nM
CCCCCCN[C@H]1CN(S(=O)(=O)c2cn(C)cn2)C[C@@H]1c1ccc(F)cc1 [Example 665, (3R,4S)-4-(4-fluorophenyl)-N-hexyl-1-[(1-methyl-1H-imidazol-4-yl)sulfonyl]pyrrolidin-3-amine] | ≤ 10 nM
CC(C)Oc1cc(N[C@H]2CN(S(=O)(=O)c3cn(C)cn3)C[C@@H]2c2ccc(F)cc2)ncn1 [Example 716, N-{(3R,4S)-4-(4-fluorophenyl)-1-[(1-methyl-1H-imidazol-4-yl)sulfonyl]pyrrolidin-3-yl}-6-(propan-2-yloxy)pyrimidin-4-amine] | ≤ 100 nM
Cn1cnc(S(=O)(=O)N2C[C@H](Nc3cc(OC4CCC4)ncn3)[C@@H](c3ccc(F)cc3)C2)c1 [Example 719, 6-(cyclobutyloxy)-N-{(3R,4S)-4-(4-fluorophenyl)-1-[(1-methyl-1H-imidazol-4-yl)sulfonyl]pyrrolidin-3-yl}pyrimidin-4-amine] | ≤ 100 nM
Cc1ccc(-c2cc(N[C@H]3CN(S(=O)(=O)c4cn(C)cn4)C[C@@H]3c3ccc(F)cc3)ncn2)cc1 [Example 725, N-{(3R,4S)-4-(4-fluorophenyl)-1-[(1-methyl-1H-imidazol-4-yl)sulfonyl]pyrrolidin-3-yl}-6-(4-methylphenyl)pyrimidin-4-amine] | ≤ 10 nM
Cn1cnc(S(=O)(=O)N2C[C@H](Nc3cc(-c4ccc(F)cc4)ncn3)[C@@H](c3ccc(F)cc3)C2)c1 [Example 728, 6-(4-fluorophenyl)-N-{(3R,4S)-4-(4-fluorophenyl)-1-[(1-methyl-1H-imidazol-4-yl)sulfonyl]pyrrolidin-3-yl}pyrimidin-4-amine] | ≤ 10 nM
Cn1cnc(S(=O)(=O)N2C[C@H](Nc3cc(-c4ccc(Cl)cc4)ncn3)[C@@H](c3ccc(F)cc3)C2)c1 [Example 730, 6-(4-chlorophenyl)-N-{(3R,4S)-4-(4-fluorophenyl)-1-[(1-methyl-1H-imidazol-4-yl)sulfonyl]pyrrolidin-3-yl}pyrimidin-4-amine] | ≤ 10 nM
Cc1ccc(CO[C@H]2CN(S(=O)(=O)c3cn(C)cn3)C[C@@H]2c2ccc(F)cc2)cc1 [Example 731, 4-({(3S,4R)-3-(4-fluorophenyl)-4-[(4-methylbenzyl)oxy]pyrrolidin-1-yl}sulfonyl)-1-methyl-1H-imidazole] | ≤ 100 nM
Cn1cnc(S(=O)(=O)N2C[C@H](Nc3ccc(F)c(-c4cccnc4)c3)[C@@H](c3ccc(F)cc3)C2)c1 [Example 745, (3R,4S)-4-(4-fluorophenyl)-N-[4-fluoro-3-(pyridin-3-yl)phenyl]-1-[(1-methyl-1H-imidazol-4-yl)sulfonyl]pyrrolidin-3-amine] | ≤ 10 nM
Cc1cc(N[C@H]2CN(S(=O)(=O)c3cn(C)cn3)C[C@@H]2c2ccc(F)cc2)ncc1F [Example 748, 5-fluoro-N-{(3R,4S)-4-(4-fluorophenyl)-1-[(1-methyl-1H-imidazol-4-yl)sulfonyl]pyrrolidin-3-yl}-4-methylpyridin-2-amine] | ≤ 10 nM
Cn1cnc(S(=O)(=O)N2C[C@H](NC(=O)CCC(C)(F)F)[C@@H](c3ccc(F)cc3)C2)c1 [Example 754, 4,4-difluoro-N-{(3R,4S)-4-(4-fluorophenyl)-1-[(1-methyl-1H-imidazol-4-yl)sulfonyl]pyrrolidin-3-yl}pentanamide] | ≤ 10000 nM
Cc1ncc(S(=O)(=O)N2C[C@H](Nc3ccc(F)c(F)c3)[C@@H](c3ccc(F)cc3)C2)n1C [Example 757, (3R,4S)—N-(3,4-difluorophenyl)-1-[(1,2-dimethyl-1H-imidazol-5-yl)sulfonyl]-4-(4-fluorophenyl)pyrrolidin-3-amine] | ≤ 10000 nM
Cn1cnc(S(=O)(=O)N2C[C@H](Nc3cc(Cl)ccn3)[C@@H](c3ccc(F)cc3)C2)c1 [Example 759, 4-chloro-N-{(3R,4S)-4-(4-fluorophenyl)-1-[(1-methyl-1H-imidazol-4-yl)sulfonyl]pyrrolidin-3-yl}pyridin-2-amine] | ≤ 10 nM
Cn1cnc(S(=O)(=O)N2C[C@H](Nc3cccc(C4CCNCC4)c3)[C@@H](c3ccccc3)C2)c1 [Example 777, (3R,4S)-1-[(1-methyl-1H-imidazol-4-yl)sulfonyl]-4-phenyl-N-[3-(piperidin-4-yl)phenyl]pyrrolidin-3-amine] | ≥ 10000 nM
Cn1cnc(S(=O)(=O)N2C[C@H](Nc3cc(OCC4CNC4)ncn3)[C@@H](c3ccc(F)cc3)C2)c1 [Example 778, 6-(azetidin-3-ylmethoxy)-N-{(3R,4S)-4-(4-fluorophenyl)-1-[(1-methyl-1H-imidazol-4-yl)sulfonyl]pyrrolidin-3-yl}pyrimidin-4-amine] | ≥ 10000 nM
Cn1cnc(S(=O)(=O)N2C[C@H](Nc3cc(OCC(F)(F)F)c(Cl)cn3)[C@@H](c3ccccc3)C2)c1 [Example 808, 5-chloro-N-{(3R,4S)-1-[(1-methyl-1H-imidazol-4-yl)sulfonyl]-4-phenylpyrrolidin-3-yl}-4-(2,2,2-trifluoroethoxy)pyridin-2-amine] | ≤ 10 nM
Cn1cnc(S(=O)(=O)N2CC(NCc3ccc(C(F)(F)F)cc3Cl)C([C@@H]3CCCO3)C2)c1 (stereo partly drawn) [Example 823, N-[2-chloro-4-(trifluoromethyl)benzyl]-1-[(1-methyl-1H-imidazol-4-yl)sulfonyl]-4-[(2S)tetrahydrofuran-2-yl]pyrrolidin-3-amine] | ≤ 1000 nM
Cn1cc(S(=O)(=O)N2C[C@H](Nc3ccc(F)c(OC(F)(F)F)c3)[C@@H](c3ccc(F)cc3)C2)nn1 [Example 838, (3R,4S)-4-(4-fluorophenyl)-N-[4-fluoro-3-(trifluoromethoxy)phenyl]-1-[(1-methyl-1H-1,2,3-triazol-4-yl)sulfonyl]pyrrolidin-3-amine] | ≤ 10 nM
Cn1cc(S(=O)(=O)N2C[C@H](Nc3cccc(Cl)c3)[C@@H](c3ccc(F)cc3)C2)nn1 [Example 841, (3R,4S)—N-(3-chlorophenyl)-4-(4-fluorophenyl)-1-[(1-methyl-1H-1,2,3-triazol-4-yl)sulfonyl]pyrrolidin-3-amine] | ≤ 10 nM
